Source: patent publication US12139499B2, “Heteroaryl compounds for treating Huntington's disease” (PTC THERAPEUTICS, INC., priority 2018, dated 2024)

Tested on: Endogenous Huntingtin Protein
Assay: Endogenous Huntingtin Protein Assay (ELISA-based MSD electrochemiluminescence)
Type: cell-based
Details: Table 1
Procedure, shortened: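 Sandwich MSD electrochemiluminescence immunoassay. Capture used MW1 (expanded polyglutamine) or MAB2166 antibody coated at 1 μg/mL overnight at 4 °C. Samples were bound overnight at 4 °C, then a rabbit monoclonal detection antibody and SULFO-TAG anti-rabbit, each at 0.25 μg/mL, were applied for 1 h at room temperature.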

SMILES | IC50 [nM]
Cc1cn2cc(-c3ncc4nc(N(C)C5CC6CCC(C5)N6)sc4n3)cc(F)c2n1 (stereo not drawn) [Compound 217, N-[(3-exo)-8-azabicyclo[3.2.1]oct-3-yl]-5-(8-fluoro-2-methylimidazo[1,2-a]pyridin-6-yl)-N-methyl[1,3]thiazolo[5,4-d]pyrimidin-2-amine] | ≤ 100
Cn1cc2cc(-c3cc(F)c4nc(C5CCNCC5)sc4c3)cc(CN)c2n1 [Compound 103, 1-{5-[4-fluoro-2-(piperidin-4-yl)-1,3-benzothiazol-6-yl]-2-methyl-2H-indazol-7-yl}methanamine] | ≤ 100
Cn1cc2cc(-c3cc4sc(NC5CC(C)(C)NC(C)(C)C5)nc4cn3)cc(C#N)c2n1 [Compound 233, 2-methyl-5-{2-[(2,2,6,6-tetramethylpiperidin-4-yl)amino][1,3]thiazolo[4,5-c]pyridin-6-yl}-2H-indazole-7-carbonitrile] | ≤ 100
Cc1cn2nc(-c3cc(F)c4nc(N(C)C5CC6CCC(C5)N6)sc4c3)ccc2n1 (stereo not drawn) [Compound 209, N-[(3-exo)-8-azabicyclo[3.2.1]oct-3-yl]-4-fluoro-N-methyl-6-(2-methylimidazo[1,2-b]pyridazin-6-yl)-1,3-benzothiazol-2-amine] | ≤ 100
Cc1cn2cc(-c3cc4sc(C5CCNCC5)nc4cn3)ccc2n1 [Compound 77, 6-(2-methylimidazo[1,2-a]pyridin-6-yl)-2-(piperidin-4-yl)[1,3]thiazolo[4,5-c]pyridine] | 100 to 500
CCCN1CCC(N(C)c2nc3nnc(-c4ccc(-c5cn[nH]c5)cc4O)cc3s2)CC1 [Compound 393, 2-{6-[methyl(1-propylpiperidin-4-yl)amino][1,3]thiazolo[4,5-c]pyridazin-3-yl]-5-(1H-pyrazol-4-yl)phenol] | 1000 to 3000
CN(c1nc2ccc(-c3cc(C#N)c4nn(C)cc4c3)nc2s1)C1CC2CCCC(C1)N2 (stereo not drawn) [Compound 281, 5-{2-[(3-exo)-9-azabicyclo[3.3.1]non-3-yl(methyl)amino][1,3]thiazolo[5,4-b]pyridin-5-yl}-2-methyl-2H-indazole-7-carbonitrile] | ≤ 100
Cc1cn2cc(-c3cc4sc(OC5CC(C)(C)NC(C)(C)C5)nc4cn3)cc(F)c2n1 [Compound 310, 6-(8-fluoro-2-methylimidazo[1,2-a]pyridin-6-yl)-2-[(2,2,6,6-tetramethylpiperidin-4-yl)oxy][1,3]thiazolo[4,5-c]pyridine] | ≤ 100
Cc1cn2cc(-c3ncc4nc(N(C)C5CCNCC5)sc4n3)cc(C#N)c2n1 [Compound 196, 2-methyl-6-{2-[methyl(piperidin-4-yl)amino][1,3]thiazolo[5,4-d]pyrimidin-5-yl}imidazo[1,2-a]pyridine-8-carbonitrile] | ≤ 100
CN1CC[C@@H]2CCN(c3nc4nnc(-c5ccc(-c6cn[nH]c6)cc5O)cc4s3)[C@@H]2C1 [Compound 369, 2-{6-[(3aR,7aS)-6-methyloctahydro-1H-pyrrolo[2,3-c]pyridin-1-yl][1,3]thiazolo[4,5-c]pyridazin-3-yl}-5-(1H-pyrazol-4-yl)phenol] | 100 to 500
Cc1cc(-c2ccc3nc(N(C)C4CCNC(C)C4)sc3c2)cc2cn(C)nc12 (stereo not shown) [Compound 66, 6-(2,7-dimethyl-2H-indazol-5-yl)-N-methyl-N-(2-methylpiperidin-4-yl)-1,3-benzothiazol-2-amine] | ≤ 100
Cc1cn2nc(-c3cc(F)c4nc(N(C)C5CCNCC5)sc4c3)cc(C#N)c2n1 [Compound 231, 6-{4-fluoro-2-[methyl(piperidin-4-yl)amino]-1,3-benzothiazol-6-yl}-2-methylimidazo[1,2-b]pyridazine-8-carbonitrile] | ≤ 100
Cc1cn2cc(-c3ncc4nc(N(C)C5CC6CCC(C5)N6)sc4n3)cc(C#N)c2n1 (stereo not drawn) [Compound 207, 6-{2-[(3-exo)-8-azabicyclo[3.2.1]oct-3-yl(methyl)amino][1,3]thiazolo[5,4-d]pyrimidin-5-yl}-2-methylimidazo[1,2-a]pyridine-8-carbonitrile] | ≤ 100
Cc1cn2nc(-c3cc4sc(N(C)C5CC(C)(C)NC(C)(C)C5)nc4cn3)ccc2n1 [Compound 89, N-methyl-6-(2-methylimidazo[1,2-b]pyridazin-6-yl)-N-(2,2,6,6-tetramethylpiperidin-4-yl)[1,3]thiazolo[4,5-c]pyridin-2-amine] | 500 to 1000
Cn1cc2cc(-c3ccc4nc(N5CCNCC5)sc4c3)ccc2n1 [Compound 7, 6-(2-methyl-2H-indazol-5-yl)-2-(piperazin-1-yl)-1,3-benzothiazole] | 1000 to 3000
CC1CC(N(C)c2nc3cnc(-c4cc(F)c5nn(C)cc5c4)cc3s2)CCN1C (stereo not shown) [Compound 378, N-(1,2-dimethylpiperidin-4-yl)-6-(7-fluoro-2-methyl-2H-indazol-5-yl)-N-methyl[1,3]thiazolo[4,5-c]pyridin-2-amine] | 100 to 500
Cc1cn2cc(-c3cc4sc(NC5CC6CCC(C5)N6)nc4cn3)cc(C#N)c2n1 (stereo not drawn) [Compound 199, 6-{2-[(3-exo)-8-azabicyclo[3.2.1]oct-3-ylamino][1,3]thiazolo[4,5-c]pyridin-6-yl}-2-methylimidazo[1,2-a]pyridine-8-carbonitrile] | ≤ 100
Cc1cn2nc(-c3cc(F)c4nc(N5CCCNCC5)sc4c3)cc(C)c2n1 [Compound 121, 6-[2-(1,4-diazepan-1-yl)-4-fluoro-1,3-benzothiazol-6-yl]-2,8-dimethylimidazo[1,2-b]pyridazine] | ≤ 100
Oc1cc(-c2c[nH]nc2F)ccc1-c1cc2sc(N3CC4(CCNCC4)C3)nc2nn1 [Compound 341, 2-[6-(2,7-diazaspiro[3.5]nonan-2-yl)[1,3]thiazolo[4,5-c]pyridazin-3-yl]-5-(3-fluoro-1H-pyrazol-4-yl)phenol] | 500 to 1000
Cc1cc(-c2cc3sc(N(C)C4CC5CCCC(C4)N5)nc3cn2)cc2cn(C)nc12 (stereo not shown) [Compound 263, N-(9-azabicyclo[3.3.1]non-3-yl)-6-(2,7-dimethyl-2H-indazol-5-yl)-N-methyl[1,3]thiazolo[4,5-c]pyridin-2-amine] | ≤ 100
Cc1cn2cc(-c3cc(F)c4nc(N(C)C5CCNCC5)sc4c3)cc(C#N)c2n1 [Compound 226, 6-{4-fluoro-2-[methyl(piperidin-4-yl)amino]-1,3-benzothiazol-6-yl}-2-methylimidazo[1,2-a]pyridine-8-carbonitrile] | ≤ 100
Cn1cc2cc(-c3ccc4nc(C5=CCNCC5)sc4c3)ccc2n1 [Compound 1, 6-(2-methyl-2H-indazol-5-yl)-2-(1,2,3,6-tetrahydropyridin-4-yl)-1,3-benzothiazole] | 100 to 500
CN(c1nc2ccc(-c3cc(F)c4nn(C)cc4c3)nc2s1)C1CC2(C)CCC(C)(C1)N2 [Compound 294, N-[(1R,3s,5S)-1,5-dimethyl-8-azabicyclo[3.2.1]octan-3-yl]-5-(7-fluoro-2-methyl-2H-indazol-5-yl)-N-methyl[1,3]thiazolo[5,4-b]pyridin-2-amine] | 100 to 500
Cc1cn2nc(-c3cc(F)c4nc(C5CCNCC5)sc4c3)cc(C)c2n1 [Compound 47, 6-[4-fluoro-2-(piperidin-4-yl)-1,3-benzothiazol-6-yl]-2,8-dimethylimidazo[1,2-b]pyridazine] | ≤ 100
Cc1cn2cc(-c3cc4sc(N(C)C5CC(C)(C)NC(C)(C)C5)nc4cn3)cc(F)c2n1 [Compound 147, 6-(8-fluoro-2-methylimidazo[1,2-a]pyridin-6-yl)-N-methyl-N-(2,2,6,6-tetramethylpiperidin-4-yl)[1,3]thiazolo[4,5-c]pyridin-2-amine] | ≤ 100
